Where two headings read alike, the source gives them in different places.
Experiments:
[1] = tested on: ALS patients; conditions: cited from earlier work
[2] = tested on: motor neurons (MNs) from spinal cord explants; test: Axonal transport assay of Qdot-BDNF in microfluidic chamber; assay type: cell-based, mice; conditions: for velocity of BDNF axonal transport: S1R−/− (S1R KO) MNs
Source text: Healthy motor neurons (MN) extend axons over long distances and through varying extracellular microenvironments to form synapses with muscles. The ability of the neuron to maintain this specialized morphology depends on cytoskeletal elements and continuous transport of proteins and organelles to and from the cell body. Cytoskeletal alterations are a major pathway implicated in the pathogenesis of ALS affecting axonal transport, growth and neuromuscular junction (NMJ) function (Eykens and Robberecht, 2015). Alterations in axonal transport are one of the first cellular processes that occur in neurodegenerative disease, including ALS. Axonal transport was evaluated using an in vitro compartmentalized system of microfluidic chambers (MFC) that separates neuronal cell bodies from their axons and synapses, enabling the study of retrograde/anterograde transport by specific monitoring and manipulation of cellular microenvironments (FIG. 1b: Zahavi 2015; Ionescu 2016).
Quantum-Dot labeled BDNF (Qdot BDNF) is retrogradely transported in axons of motor neurons grown from spinal cord explants in a microfluidic chamber (MFC). A MFC was used to analyze Qdot BDNF axonal transport. Axonal transport of BDNF in the SOD1 model (SOD1G93A) for ALS has been studied (Bilsland 2010; Perlson 2009; De Vos 2007). The effect of pridopidine on transport of Qdot BDNF along the axons of motor neurons was assessed in spinal cord explants from E12.5 SOD1 G93A and WT littermate mice (LM). Experimental workflow for the axonal transport assay (from left to right, FIG. 1a): SOD1G93A or wild Type (LM) spinal cord explants were plated in the MFC. At about 5 days post plating, axons began to cross over into the distal compartment. On day 6 post plating, an amount of pridopidine was added to both compartments. On day 7, Qdot-BDNF was added to the distal compartment and axonal transport was imaged using a high-resolution spinning-disk confocal microscope. Schematic illustration of microfluidic chamber system (FIG. 1b): Explants planted in the proximal compartment extend axons to the distal compartment, where Qdot-BDNF is applied exclusively prior to visualization.
Spinning disk confocal microscopy was used to track Qdot BDNF along the axons of motor neuron explant cultures. Time lapse images of Qdot-BDNF axonal transport as acquired at 60× magnification (FIG. 1c). Arrowheads point to a single Qdot-BDNF particle that is retrogradely transported (left) towards the cell body. Scale bar: 10 μm. […] Scale bars: horizontal 10 μm: vertical 100 seconds (FIG. 1c).
. Six independent biological repeats, from 6 different cultures were tested so that from each culture and explant with neurons/glia ˜250 BDNF particles were followed along the axons in the grooves. Velocity refers to the movement of a single BDNF particle. The experiment was repeated with MNs from mice in which sigma 1 receptor was genetically deleted (S1R KO or S1R−/−) (Langa, 2003). Ventral spinal cord sections from S1R−/− mice embryos were cultured and plated in the MFC as described above, and the axonal transport of Qdot-BDNF was analyzed.
SOD1G93 and S1R−/− explants with or without pridopidine were compared to littermate controls (LM).
Qdot-BDNF particle tracking was performed on Bitplane Imaris, using the semi-automated spot tracking function. […]; stop duration: speed<0.1 μm/sec for 3 frames. Data were then exported to MATLAB for further analysis of particle transport including Instantaneous Velocities (FIG. 2a) from 6 independent cultures, and Stop count (FIG. 2b).

[3] = tested on: MN-myocyte co-culture
Method: Synapse disruption is the earliest cellular compartment disrupted in ALS. To test the ability of pridopidine to affect synapse function in an ALS model, cultures from Experiment 2 were grown for approximately four additional days (day 18), when axons extend into the distal compartment and generate NMJs.
Scale bar: 201 μm. […] To evaluate NMJ function, movies of muscle contraction were acquired at a frame rate of 30 frames per second for 1000 frames (FIG. 5b).
Briefly, contractile activity of muscles in the distal compartment of the MFC, which were overlapped by at least one axon was examined. Muscles were categorized into two groups: ‘Contracting’ or ‘Non-contracting’, depending on their motile activity during the movie. The motility of muscles was validated by generating intensity-over-time plots for each muscle (FIG. 5b). The number of contracting muscle fibers per chamber was divided by the total number of muscle fibers analyzed in the same chamber, yielding the percentage of contracting myotubes as an output for NMJ activity.

[4] = tested on: ERK; conditions: 30 minutes
Method: The ERK pathway promotes numerous cellular functions including proliferation and differentiation. […] Primary MN cultures at 2 DIV were starved overnight in neurotrophin- and serum-free medium (PNB). The following day, cultures were treated for 30 minutes with pridopidine or with BDNF as a positive control.

[5] = tested on: SOD1G93A mice; conditions: 30 mg/kg daily s.c. for 11 weeks
Method: Presymptomatic SOD1G93A mice (5 weeks of age) and WT controls were treated with either saline, 3 or 30 mg/kg pridopidine, by daily s.c. (subcutaneous) administration for 11 weeks (until 16 weeks of age). At the end of the experiment, lumbar spinal cords (L1-L6) were extracted, fixed, and embedded for cryosectioning.

[6] = tested on: SOD1G93A mice and WT controls; conditions: for increase in the muscle fiber diameter: Gastrocnemius, 30 mg/kg s.c. daily
Method: NMJ disruption and the subsequent skeletal muscle wasting are two main pathologies of ALS. Effect of pridopidine on muscle fiber atrophy and preservation of NMJs was evaluated in-vivo. Presymptomatic SOD1G93A mice and WT controls (5 weeks old) were treated with either saline, or pridopidine 3 or 30 mg/kg, by daily s.c. administration for 11 weeks. The Gastrocnemius muscles from vehicle or pridopidine-treated (30 mg/kg s.c.) mice were extracted from the SOD1G93A and WT mice at age 16 weeks. Muscle cross-sections were stained with Hematoxylin & Eosin (H& E), and the mean muscle fiber diameter was quantified for each group (FIG. 10a). NMJ preservation was evaluated by confocal imaging of co-localizing pre (NFH+Synapsin-I (green)- and post-synaptic (AchR (BTX; red) markers and counting the number of fully innervated NMJs in gastrocnemius muscles (FIG. 11a).

[7] = tested on: motor neuron axons co-cultured with primary myocytes; conditions: myocytes carrying SOD1G93A mutation, 1 μM
Method: Primary muscle cells from presymptomatic (P60) WT or SOD1G93A mice were cultured. On day 6 primary skeletal myoblasts were cultured in the distal compartment of a MFC. About six days later (day 12), ventral spinal cord explants from WT or SOD1G93A E12.5 mouse embryos that express HB9-GFP (a specific motor neuron marker) were plated in the proximal compartment, followed by application of pridopidine or vehicle to both compartments. Pridopidine was refreshed every other day. Two days post explant plating (day 14), motor axon growth and degeneration were evaluated using live imaging on a spinning disc confocal system. Axonal growth was tracked by imaging every 10 min for 8 hrs. Experiments were repeated three times.

[8] = tested on: human subjects afflicted with ALS; conditions: periodic oral administration
[9] = tested on: neuroblastoma cell line; conditions: S1R-dependent (Geva 2016); cited from earlier work
[10] = tested on: rat striatum; conditions: transcriptomic analysis; cited from earlier work
[11] = tested on: S1R; conditions: by activation of the S1R (Ryskamp 2017); cited from earlier work

Question: With `CC1=NN(c2ccccc2)C(=O)C1` [edaravone] as the compound, how does the physical decline [1] read?
Answer: Its physical decline is “slows physical decline”.

Question: With `Nc1nc2ccc(OC(F)(F)F)cc2s1` [riluzole, reference compound] as the compound, how does the “instantaneous velocity of Qdot-BDNF particles” value ([2]; SOD1G93A MNs, 100l M (printed)) read?
Answer: The value was “did not affect the instantaneous velocities”.

Question: And the “instantaneous velocity of Qdot-BDNF particles” value ([2]; SOD1G93A MNs, 251M (printed))?
Answer: The value was “did not affect the instantaneous velocities”.

Question: And the “rate of progression of the disease” value [1]?
Answer: Its value is “slows the rate of progression of the disease”.

Question: What does the source list for `CCCN1CCC(c2cccc(S(C)(=O)=O)c2)CC1` [pridopidine, 4-(3-(Methylsulfonyl)phenyl)-1-propylpiperidine]?
Answer: velocity of BDNF axonal transport ([2]; 0.1 μM): not able to recover these defects; velocity of BDNF axonal transport ([2]; 1 μM): not able to recover these defects; axonal transport parameters of Qdot-BDNF ([2]; S1R−/− MNs, any of the concentrations tested): not responsive to pridopidine; instantaneous velocity of Qdot-BDNF particles ([2]; SOD1G93A MNs, 0.1 μM): accelerated the instantaneous velocities; particle stop count (number of counted stops of Qdot-BDNF per second) ([2]; SOD1G93A MNs, 0.1 μM): reduced the number of pauses during axonal transport; instantaneous velocity of Qdot-BDNF particles ([2]; SOD1G93A MNs, 1 μM): accelerated the instantaneous velocities; particle stop count (number of counted stops of Qdot-BDNF per second) ([2]; SOD1G93A MNs, 1 μM): reduced the number of pauses during axonal transport; particle stop count (number of counted stops of Qdot-BDNF per second) ([2]; WT MNs, 0.1 μM): reduced the number of pauses during axonal transport; instantaneous velocity of Qdot-BDNF particles ([2]; WT MNs, 0.1 μM, overnight incubation): accelerated the instantaneous velocities; percentage of contracting myocytes (neuromuscular activity) ([3]; S1R−/− MNs co-cultures, 0.1μM): did not restore the neuromuscular activity; percentage of contracting myocytes ([3]; S1R−/− MNs co-cultures, 1 μM): significantly lower than the percentage of contracting myocytes in untreated and treated WT cultures; percentage of contracting myocytes ([3]; SOD1G93A myocytes co-culture, 0.1μM): increases the percentage of contracting myocytes and restores neuromuscular activity to WT levels; percentage of contracting myocytes ([3]; SOD1G93A myocytes co-culture, 1μM): increases the percentage of contracting myocytes and restores neuromuscular activity to WT levels; innervation rate of muscles ([3]; muscles carrying SOD1 mutation, 1 μM): increases innervation rate of muscles carrying SOD1 mutation to near WT levels; activation of ERK (pERK) ([4]; S1R−/− MN cultures, 0.1 μM and 1 μM): but not in S1R−/− MN cultures; increase in pERK (pERK/ERK ratio) ([4]; SOD1G93A MNs, 0.1 μM): ~2.9 fold; increase in pERK (pERK/ERK ratio) ([4]; SOD1G93A MNs, 1 μM): ~8.5 fold; increase in pERK (pERK/ERK ratio) ([4]; WT MNs, 0.1 μM): ~3.5 fold; increase in pERK (pERK/ERK ratio) ([4]; WT MNs, 1 μM): ~4 fold; reduction of number of mutant SOD1 aggregates, gray matter ([5]; spinal cord gray matter): ~50%; reduction of number of mutant SOD1 aggregates, white matter ([5]; spinal cord white matter): ~50%; loss of NMJs ([6]; SOD1G93A mice compared to WT, gastrocnemius, pridopidine treated): ~20%; increase in the muscle fiber diameter ([6]; SOD1G93A mice): ~4 μm; increase in the muscle fiber diameter ([6]; WT mice): ~5 μm; axonal growth: number of grooves with axons crossing into muscle compartment [7]: increased number of axons crossing into the distal compartment; symptoms of ALS in human subjects [8]: provides a clinically meaningful advantage in reducing the symptoms of ALS; secretion of BDNF [9]: enhance secretion of the neuroprotective brain-derived neurotrophic factor (BDNF); expression of BDNF, D1R, GR and Akt/PI3K pathways [10]: activates expression; spine impairment and aberrant calcium signaling [11]: rescue spine impairment and aberrant calcium signaling

— patent US11406625B2, “Method of treating amyotrophic lateral sclerosis with pridopidine” (PRILENIA NEUROTHERAPEUTICS LTD., priority 2017, dated 2022)
